ChEMBL document CHEMBL4680342, “Discovery of DB18, a potent inhibitor of CLK kinases with a high selectivity against DYRK1A kinase” (Bioorg Med Chem, 2021)

Tests used:
Fibroblast = assay: cells; conditions: Homo sapiens, 48 h
Description: Cytotoxicity against human Fibroblast cells assessed as reduction in cell viability incubated for 48 hrs by Hoechst-33342 staining based cell counting method (Rvb > 25 microM)

MCF7 = assay: cells; conditions: Homo sapiens, MCF7, 48 h
Huh-7 = assay: cells; conditions: Homo sapiens, Huh-7, 48 h
NCI-H727 = assay: cells; conditions: Homo sapiens, NCI-H727, 48 h
Description: Cytotoxicity against human NCI-H727 cells assessed as reduction in cell viability incubated for 48 hrs by Hoechst-33342 staining based cell counting method (Rvb > 25 microM)

MDA-MB-231 = assay: cells; conditions: Homo sapiens, MDA-MB-231, 48 h
Description: Cytotoxicity against human MDA-MB-231 cells assessed as reduction in cell viability incubated for 48 hrs by Hoechst-33342 staining based cell counting method (Rvb > 25 microM)

Caco-2 = assay: cells; conditions: Homo sapiens, Caco-2, 48 h
PC-3 = assay: cells; conditions: Homo sapiens, PC-3, 48 h
Description: Cytotoxicity against human PC-3 cells assessed as reduction in cell viability incubated for 48 hrs by Hoechst-33342 staining based cell counting method (Rvb > 25 microM)

[1] = target: DYRK1A (dual specificity tyrosine-phosphorylation-regulated kinase 1A) (Rattus norvegicus, UniProt Q63470); assay: Inhibition of rat DYRK1A (1 to 499 residues) assessed as residual activity at 10 uM by ADP-Glo assay relative to control; conditions: rat DYRK1A enzyme (residues 1 to 499), read-out: Activity
[2] = target: Glycogen synthase kinase-3 beta (Homo sapiens) (UniProt P49841); assay: Inhibition of human GSK3beta assessed as residual activity at 10 uM by ADP-Glo assay relative to control
Glycogen synthase kinase-3 beta (Homo sapiens), sequence (P49841 whole entry, looked up): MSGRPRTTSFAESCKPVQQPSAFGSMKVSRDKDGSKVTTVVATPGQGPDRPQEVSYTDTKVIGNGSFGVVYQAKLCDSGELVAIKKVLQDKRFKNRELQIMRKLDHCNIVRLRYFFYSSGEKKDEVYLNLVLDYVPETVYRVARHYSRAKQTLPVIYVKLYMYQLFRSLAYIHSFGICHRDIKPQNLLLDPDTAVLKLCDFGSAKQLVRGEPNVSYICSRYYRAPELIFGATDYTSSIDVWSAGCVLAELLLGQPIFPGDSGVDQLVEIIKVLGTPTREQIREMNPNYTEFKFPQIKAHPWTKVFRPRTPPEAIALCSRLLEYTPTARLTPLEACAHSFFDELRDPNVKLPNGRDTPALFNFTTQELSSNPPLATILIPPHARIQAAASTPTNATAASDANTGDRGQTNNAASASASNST

[3] = target: Cyclin-dependent kinase 5/CDK5 activator 1 (Homo sapiens) (UniProt Q00535+Q15078); assay: Inhibition of human CDK5/p25 assessed as residual activity at 10 uM by ADP-Glo assay relative to control; format: protein-complex assay
Cyclin-dependent kinase 5/CDK5 activator 1 (Homo sapiens), sequence (Q00535 whole entry): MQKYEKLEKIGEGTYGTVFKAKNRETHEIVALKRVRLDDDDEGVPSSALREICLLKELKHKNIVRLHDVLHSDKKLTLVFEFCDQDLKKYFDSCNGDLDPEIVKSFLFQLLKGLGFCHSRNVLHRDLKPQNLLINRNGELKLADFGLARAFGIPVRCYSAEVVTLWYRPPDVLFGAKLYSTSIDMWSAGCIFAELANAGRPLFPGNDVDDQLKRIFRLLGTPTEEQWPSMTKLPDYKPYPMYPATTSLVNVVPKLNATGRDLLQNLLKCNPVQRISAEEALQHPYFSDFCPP
Cyclin-dependent kinase 5/CDK5 activator 1 (Homo sapiens), sequence (Q15078 99-307 partner limits assumed): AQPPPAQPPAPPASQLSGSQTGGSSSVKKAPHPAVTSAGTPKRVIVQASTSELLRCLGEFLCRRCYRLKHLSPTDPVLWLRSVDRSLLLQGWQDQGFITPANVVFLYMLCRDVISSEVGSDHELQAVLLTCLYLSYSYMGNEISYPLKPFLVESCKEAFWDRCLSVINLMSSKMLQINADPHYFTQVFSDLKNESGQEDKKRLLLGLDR

[4] = target: Serine/threonine-protein kinase pim-1 (Homo sapiens) (UniProt P11309); assay: Inhibition of human PIM1 assessed as residual activity at 10 uM by ADP-Glo assay relative to control
Serine/threonine-protein kinase pim-1 (Homo sapiens), sequence (P11309 whole entry, looked up): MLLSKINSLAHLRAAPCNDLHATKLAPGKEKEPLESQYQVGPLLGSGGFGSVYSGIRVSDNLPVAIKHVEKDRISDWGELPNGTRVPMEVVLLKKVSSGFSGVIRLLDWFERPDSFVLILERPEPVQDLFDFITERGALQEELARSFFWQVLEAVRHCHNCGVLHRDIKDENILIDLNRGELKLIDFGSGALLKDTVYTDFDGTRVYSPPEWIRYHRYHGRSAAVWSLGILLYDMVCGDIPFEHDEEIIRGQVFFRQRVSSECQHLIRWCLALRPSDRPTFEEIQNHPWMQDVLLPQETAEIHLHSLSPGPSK

[5] = target: CDK9/cyclin T1 (Homo sapiens) (UniProt O60563+P50750); assay: Inhibition of human CDK9/CyclinT assessed as residual activity at 10 uM by ADP-Glo assay relative to control; format: protein-complex assay
[6] = target: Casein kinase I isoform epsilon (Homo sapiens) (UniProt P49674); assay: Inhibition of human CK1epsilon assessed as residual activity at 10 uM by ADP-Glo assay relative to control
Casein kinase I isoform epsilon (Homo sapiens), sequence (P49674 whole entry, looked up, canonical isoform): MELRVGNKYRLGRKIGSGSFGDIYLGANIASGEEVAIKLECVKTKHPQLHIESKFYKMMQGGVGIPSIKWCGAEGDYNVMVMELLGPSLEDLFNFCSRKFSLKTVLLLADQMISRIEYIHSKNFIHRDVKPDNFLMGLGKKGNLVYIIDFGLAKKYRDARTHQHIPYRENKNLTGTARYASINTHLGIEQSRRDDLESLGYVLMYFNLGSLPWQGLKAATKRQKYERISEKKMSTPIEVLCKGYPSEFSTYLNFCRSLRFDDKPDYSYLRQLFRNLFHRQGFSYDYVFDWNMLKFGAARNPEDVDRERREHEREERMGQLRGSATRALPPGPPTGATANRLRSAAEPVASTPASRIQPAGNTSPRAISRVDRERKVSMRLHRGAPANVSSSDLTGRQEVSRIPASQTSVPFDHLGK

[7] = target: T1, Serine/threonine-protein kinase haspin (Homo sapiens) (UniProt Q8TF76); assay: Inhibition of human HASPIN assessed as residual activity at 10 uM by ADP-Glo assay relative to control
T1 sequence (whole entry): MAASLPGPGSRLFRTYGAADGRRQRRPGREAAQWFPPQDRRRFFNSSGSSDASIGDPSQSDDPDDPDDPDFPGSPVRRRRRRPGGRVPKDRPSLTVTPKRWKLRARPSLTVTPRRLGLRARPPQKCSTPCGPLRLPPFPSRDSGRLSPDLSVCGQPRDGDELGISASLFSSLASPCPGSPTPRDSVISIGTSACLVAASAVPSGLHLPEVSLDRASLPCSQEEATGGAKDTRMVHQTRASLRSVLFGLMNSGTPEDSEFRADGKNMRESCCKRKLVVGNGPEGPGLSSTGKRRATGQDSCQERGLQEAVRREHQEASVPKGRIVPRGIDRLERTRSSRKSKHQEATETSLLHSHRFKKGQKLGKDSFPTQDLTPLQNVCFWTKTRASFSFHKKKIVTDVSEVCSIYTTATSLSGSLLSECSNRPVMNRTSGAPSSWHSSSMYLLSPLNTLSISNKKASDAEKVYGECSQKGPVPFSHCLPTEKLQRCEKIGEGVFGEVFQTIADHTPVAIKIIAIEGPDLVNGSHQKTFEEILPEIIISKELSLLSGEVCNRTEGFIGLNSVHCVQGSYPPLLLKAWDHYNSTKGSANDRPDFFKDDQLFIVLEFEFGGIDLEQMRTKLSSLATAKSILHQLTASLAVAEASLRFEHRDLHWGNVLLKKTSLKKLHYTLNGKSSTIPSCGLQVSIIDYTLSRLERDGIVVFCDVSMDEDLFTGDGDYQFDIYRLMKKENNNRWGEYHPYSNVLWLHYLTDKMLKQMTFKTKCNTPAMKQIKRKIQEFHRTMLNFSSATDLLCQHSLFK

[8] = target: Dual specificity protein kinase CLK1 (Mus musculus) (UniProt P22518); assay: Inhibition of mouse CLK1 assessed as residual activity at 10 uM by ADP-Glo assay relative to control
Dual specificity protein kinase CLK1 (Mus musculus), sequence (P22518 whole entry, looked up, the tested form may be a part): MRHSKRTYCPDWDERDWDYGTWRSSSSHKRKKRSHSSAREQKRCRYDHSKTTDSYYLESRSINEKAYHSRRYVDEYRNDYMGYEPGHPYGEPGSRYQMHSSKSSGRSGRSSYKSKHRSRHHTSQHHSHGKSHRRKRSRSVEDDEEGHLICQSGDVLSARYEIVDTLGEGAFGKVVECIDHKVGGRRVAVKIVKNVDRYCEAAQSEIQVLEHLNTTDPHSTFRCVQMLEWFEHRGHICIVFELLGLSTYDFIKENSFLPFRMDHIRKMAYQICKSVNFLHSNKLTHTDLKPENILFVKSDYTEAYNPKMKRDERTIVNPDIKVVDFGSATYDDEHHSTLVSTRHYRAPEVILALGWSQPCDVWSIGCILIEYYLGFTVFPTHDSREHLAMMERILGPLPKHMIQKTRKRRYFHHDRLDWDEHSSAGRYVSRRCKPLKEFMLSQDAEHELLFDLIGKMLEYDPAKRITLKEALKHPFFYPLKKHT

HCT-116 = assay: cells; conditions: Homo sapiens, HCT-116, 48 h
Description: Cytotoxicity against human HCT-116 cells assessed as reduction in cell viability incubated for 48 hrs by Hoechst-33342 staining based cell counting method (Rvb > 25 microM)

[9] = target: Dual specificity protein kinase CLK1 (Mus musculus) (UniProt P22518); assay: Inhibition of mouse CLK1 assessed as residual activity by ADP-Glo assay
[10] = target: Dual specificity tyrosine-phosphorylation-regulated kinase 1A (Rattus norvegicus, UniProt Q63470); assay: Inhibition of rat DYRK1A (1 to 499 residues) assessed as residual activity at 100 uM by ADP-Glo assay
[11] = target: Dual specificity tyrosine-phosphorylation-regulated kinase 1B (Homo sapiens, UniProt Q9Y463); assay: Inhibition of human DYRK1B at 100 uM by ADP-Glo assay
Dual specificity tyrosine-phosphorylation-regulated kinase 1B, sequence (Q9Y463 whole entry): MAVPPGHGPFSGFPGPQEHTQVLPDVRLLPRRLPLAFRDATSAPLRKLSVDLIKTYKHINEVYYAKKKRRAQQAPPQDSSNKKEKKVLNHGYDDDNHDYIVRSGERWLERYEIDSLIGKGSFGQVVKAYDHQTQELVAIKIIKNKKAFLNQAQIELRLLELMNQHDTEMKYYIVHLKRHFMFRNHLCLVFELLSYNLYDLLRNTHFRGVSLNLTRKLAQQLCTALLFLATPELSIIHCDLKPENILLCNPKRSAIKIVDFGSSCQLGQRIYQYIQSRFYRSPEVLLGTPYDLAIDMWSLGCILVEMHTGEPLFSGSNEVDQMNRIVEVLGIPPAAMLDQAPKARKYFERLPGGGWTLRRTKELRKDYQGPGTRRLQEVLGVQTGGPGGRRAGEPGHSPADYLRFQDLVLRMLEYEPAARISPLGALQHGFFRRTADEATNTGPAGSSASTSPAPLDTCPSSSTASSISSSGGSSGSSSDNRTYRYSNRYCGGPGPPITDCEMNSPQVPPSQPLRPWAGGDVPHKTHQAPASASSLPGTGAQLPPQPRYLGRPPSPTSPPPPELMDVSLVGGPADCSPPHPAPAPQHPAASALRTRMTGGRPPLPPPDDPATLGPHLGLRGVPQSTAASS

[12] = target: T2, Dual specificity tyrosine-phosphorylation-regulated kinase 2 (Homo sapiens, UniProt Q92630); assay: Inhibition of human DYRK2 at 100 uM by ADP-Glo assay
T2 sequence (Q92630 whole entry): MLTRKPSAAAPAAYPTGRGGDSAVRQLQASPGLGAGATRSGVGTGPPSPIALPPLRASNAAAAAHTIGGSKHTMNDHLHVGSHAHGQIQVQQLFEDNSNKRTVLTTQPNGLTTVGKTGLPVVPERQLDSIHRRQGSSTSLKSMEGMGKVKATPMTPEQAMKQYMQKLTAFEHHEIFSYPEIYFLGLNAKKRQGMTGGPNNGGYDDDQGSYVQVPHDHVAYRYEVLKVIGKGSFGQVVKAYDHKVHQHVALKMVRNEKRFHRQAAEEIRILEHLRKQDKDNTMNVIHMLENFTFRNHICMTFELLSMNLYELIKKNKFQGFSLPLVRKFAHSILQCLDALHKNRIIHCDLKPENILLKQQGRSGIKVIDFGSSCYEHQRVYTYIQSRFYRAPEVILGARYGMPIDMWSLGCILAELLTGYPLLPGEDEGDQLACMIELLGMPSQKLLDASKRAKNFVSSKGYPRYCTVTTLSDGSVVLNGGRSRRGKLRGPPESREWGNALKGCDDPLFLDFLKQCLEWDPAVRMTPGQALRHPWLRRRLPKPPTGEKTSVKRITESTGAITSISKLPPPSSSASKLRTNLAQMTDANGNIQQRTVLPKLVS

[13] = target: Dual specificity tyrosine-phosphorylation-regulated kinase 1A (Homo sapiens, UniProt Q13627); assay: Inhibition of human DYRK1A at 100 uM by ADP-Glo assay

| IC50 (MCF7) [µM] | IC50 (Huh-7) [µM] | IC50 (NCI-H727) [µM] | IC50 (MDA-MB-231) [µM] | IC50 (Caco-2) [µM] | IC50 (PC-3) [µM] | activity at 10 µM [1] [%] | Activity [2] [%] | Activity [3] [%] | Activity [4] [%] | Activity [5] [%] | Activity [6] [%] | Activity [7] [%] | Activity [8] [%] | IC50 (HCT-116) [µM] | Compound | IC50 (Fibroblast) [µM] | further results |
| --- | --- | --- | --- | --- | --- | --- | --- | --- | --- | --- | --- | --- | --- | --- | --- | --- | --- |
|  | 0.036 |  | 0.01 | 0.05 | 0.06 |  |  |  |  |  |  |  |  |  | COc1cccc2c1C(=O)c1c(O)c3c(c(O)c1C2=O)C[C@@](O)(C(=O)CO)C[C@@H]3O[C@H]1C[C@H](N)[C@H](O)[C@H](C)O1 [DOXORUBICIN] | 0.015 |  |
| 6 | 7 | > 25 | > 25 | > 25 | 8 | 100 | 61 | 94 | 84 | 74 | 96 | 100 | 26 | > 25 | COc1ccccc1-n1cc(COc2cccc3cnc(Nc4cccc(Cl)c4)nc23)nn1 | > 25 |  |
| 8 | 23 | > 25 | 25 | 20 | 10 | 87 | 47 | 94 | 79 | 85 | 40 | 100 | 27 | 23 | COc1cccc(-n2cc(COc3cccc4cnc(Nc5cccc(Cl)c5)nc34)nn2)c1 | 18 |  |
| 5 | 7 | 7 | 9 | 8 | 8 | 100 | 35 | 90 | 78 | 64 | 55 | 77 | 81 | 8 | Clc1cccc(Nc2ncc3cccc(OCc4cn(-c5cc(Cl)cc(Cl)c5)nn4)c3n2)c1 | 8 |  |
|  |  |  |  |  |  | 94 | 47 | 100 | 69 | 100 | 86 | 100 | 70 |  | COc1ccc(-n2cc(COc3cccc4cnc(Nc5cccc(Cl)c5)nc34)nn2)cc1 |  |  |
|  |  |  |  |  |  | 74 | 14 | 40 | 45 | 25 | 41 | 44 | 16 |  | Cc1ccc(-n2cc(COc3cccc4cnc(Nc5cccc(Cl)c5)nc34)nn2)cc1[N+](=O)[O-] |  | IC50 [9]: 3000 nM |
|  |  |  |  |  |  |  |  | 84 | 81 | 54 |  | 94 | 11 |  | Cc1ccc(-n2cc(COc3cccc4cnc(Nc5cccc(Cl)c5)nc34)nn2)c([N+](=O)[O-])c1 |  | inhibition (INH) [10]: Not Active; IC50 [9]: 120 nM; inhibition (INH) [11]: Not Active; inhibition (INH) [12]: Not Active; inhibition (INH) [13]: Not Active |
|  | 0.013 | 0.01 | 0.03 | 0.014 | 0.002 |  |  |  |  |  |  |  |  | 0.002 | CC(=O)O[C@H]1C(=O)[C@@]2(C)[C@H]([C@H](OC(=O)c3ccccc3)[C@]3(O)C[C@H](OC(=O)[C@H](O)[C@@H](NC(=O)c4ccccc4)c4ccccc4)C(C)=C1C3(C)C)[C@]1(OC(C)=O)CO[C@@H]1C[C@@H]2O [PACLITAXEL] | 0.1 |  |

Continued, compound first:

| Compound | IC50 (MCF7) [µM] | IC50 (Huh-7) [µM] | IC50 (NCI-H727) [µM] | IC50 (MDA-MB-231) [µM] | IC50 (Caco-2) [µM] | IC50 (PC-3) [µM] | activity at 10 µM [1] [%] | Activity [2] [%] | Activity [3] [%] | Activity [4] [%] | Activity [5] [%] | Activity [6] [%] | Activity [7] [%] | Activity [8] [%] | IC50 (HCT-116) [µM] | IC50 (Fibroblast) [µM] | further results |
| --- | --- | --- | --- | --- | --- | --- | --- | --- | --- | --- | --- | --- | --- | --- | --- | --- | --- |
| CC[C@H](CO)Nc1nc(NCc2ccccc2)c2ncn(C(C)C)c2n1 [SELICICLIB] | 9 | 14 | 28 |  |  |  |  |  |  |  |  |  |  |  |  | 6 |  |
| O=[N+]([O-])c1ccc(-n2cc(COc3cccc4cnc(Nc5cccc(Cl)c5)nc34)nn2)cc1 |  |  |  |  |  |  | 100 | 87 | 94 | 79 | 63 | 86 | 100 | 26 |  |  |  |
| Clc1cccc(Nc2ncc3cccc(OCc4cn(Cc5c(Cl)cccc5Cl)nn4)c3n2)c1 | 6 | 7 | 5 | 21 | 9 | 7 | 75 | 58 | 94 | 97 | 53 | 100 | 59 | 48 | 24 | 14 |  |
| Clc1cccc(Nc2ncc3cccc(OCc4cn(-c5ccc(Br)cc5)nn4)c3n2)c1 | 9 | 14 | 8 | 33 | 11 | 18 | 95 | 77 | 100 | 79 | 81 | 79 | 100 | 56 | 17 | > 25 |  |
| O=[N+]([O-])c1ccc(Cn2cc(COc3cccc4cnc(Nc5cccc(Cl)c5)nc34)nn2)cc1 |  |  |  |  |  |  | 88 | 60 | 90 | 77 | 72 | 65 | 76 | 39 |  |  |  |
| Clc1ccc(-n2cc(COc3cccc4cnc(Nc5cccc(Cl)c5)nc34)nn2)cc1 | > 25 | 24 | > 25 | > 25 | 24 | > 25 | 99 | 87 | 100 | 86 | 95 | 100 | 100 | 85 | > 25 | > 25 |  |
| Clc1cccc(Nc2ncc3cccc(OCc4cn(Cc5ccccc5)nn4)c3n2)c1 |  |  |  |  |  |  | 81 | 48 | 87 | 84 | 100 | 79 | 83 | 65 |  |  |  |
